Patent US7414061B2, “Aryl-isoxazol-4-yl-imidazole derivatives” (Hoffmann-La Roche Inc., priority 2005, dated 2008)
Read-outs that look alike come from different tables or passages of the source.

Target: T1, GABA A receptor α5β3γ2 (hα5) (Homo sapiens, UniProt P18507+P31644)
T1 construct: expressed in transfected cells; host or cells: HEK293 (transiently transfected), membrane preparation
Test: [3H]flumazenil competition binding assay, human GABA A α5β3γ2
Experimental: The affinity of compounds at GABA A receptor subtypes was measured by competition for [3H]flumazenil (85 Ci/mmol; Roche) binding to HEK293 cells expressing rat (stably transfected) or human (transiently transfected) receptors of composition α1β3γ2, α2β3γ2, α3β3γ2 and α5β3γ2.
Cell pellets were suspended in Krebs-tris buffer (4.8 mM KCl, 1.2 mM CaCl2, 1.2 mM MgCl2, 120 mM NaCl, 15 mM Tris; pH 7.5; binding assay buffer), homogenized by polytron for ca. 20 sec on ice and centrifuged for 60 min at 4° C. (50000 g; Sorvall, rotor: SM24=20000 rpm). The cell pellets were resuspended in Krebs-tris buffer and homogenized by polytron for ca. 15 sec on ice. Protein was measured (Bradford method, Bio-Rad) and aliquots of 1 mL were prepared and stored at −80° C.
Radioligand binding assays were carried out in a volume of […] (96-well plates) which contained […] of cell membranes, [3H]flumazenil at a concentration of 1 nM for α1, α2, α3 subunits and 0.5 nM for α5 subunits and the test compound in the range of […]. Nonspecific binding was defined by 10^−5 M diazepam and typically represented less than 5% of the total binding. Assays were incubated to equilibrium for 1 hour at 4° C. and harvested onto GF/C uni-filters (Packard) by filtration using a Packard harvester and washing with ice-cold wash buffer (50 mM Tris; pH 7.5). After drying, filter-retained radioactivity was detected by liquid scintillation counting. Ki values were calculated using Excel-Fit (Microsoft) and are the means of two determinations.

[1] = displacement of [3H]flumazenil (0.5 nM) from HEK293 cell membranes expressing α5β3γ2, means of two determinations, read-out: Ki[nM] hα5

Molecule	Ki [1] [nM]	Ki [nM]
Cc1onc(-c2ccccc2)c1-c1cn(-c2ncccn2)cn1 [Example 33, 2-[4-(5-Methyl-3-phenyl-isoxazol-4-yl)-imidazol-1-yl]-pyrimidine]	15	
Cc1onc(-c2ccccc2)c1-c1cn(-c2ccc(C(F)(F)F)cc2)c(COCc2ccccc2)n1 [Example 64, 4-[2-Benzyloxymethyl-1-(4-trifluoromethyl-phenyl)-1H-imidazol-4-yl]-5-methyl-3-phenyl-isoxazole]	14.7	
4-{4-[3-(3-Fluoro-phenyl)-5-methyl-isoxazol-4-yl]-imidazol-1-yl}-N-[2-(1H-imidazol-4-yl)-ethyl]-benzamide [Example 104]	31.5	
CCc1onc(-c2ccc(F)cc2)c1-c1cn(-c2ccc(C(F)(F)F)cc2)cn1 [Example 133, 5-Ethyl-3-(4-fluoro-phenyl)-4-[1-(4-trifluoromethyl-phenyl)-1H-imidazol-4-yl]-isoxazole]	29.8	
Cc1cccc(COCc2nc(-c3c(-c4ccccc4)noc3C)cn2-c2ccc([N+](=O)[O-])cc2)n1 [Example 162, 2-Methyl-6-[4-(5-methyl-3-phenyl-isoxazol-4-yl)-1-(4-nitro-phenyl)-1H-imidazol-2-ylmethoxymethyl]-pyridine]	28.2	
N#Cc1ccc(-n2cnc(-c3c(-c4ccccc4)noc3CO)c2)cc1 [Example 139, 4-[4-(5-Hydroxymethyl-3-phenyl-isoxazol-4-yl)-imidazol-1-yl]-benzonitrile]	28.2	
Cc1onc(-c2ccccc2)c1-c1cn(-c2cccc(Br)c2)cn1 [Example 7, 4-[1-(3-Bromo-phenyl)-1H-imidazol-4-yl]-5-methyl-3-phenyl-isoxazole]	30.9	
Cc1onc(-c2ccccc2)c1-c1cn(-c2ccc([N+](=O)[O-])cc2)c(COCc2cccc(F)c2)n1 [Example 158, 4-[2-(3-Fluoro-benzyloxymethyl)-1-(4-nitro-phenyl)-1H-imidazol-4-yl]-5-methyl-3-phenyl-isoxazole]	17	

More lines, now with the values ahead:

Ki [1] [nM]	Ki [nM]	Molecule
13.6		COC(=O)c1ccc(-n2cnc(-c3c(-c4ccc(F)cc4)noc3C)c2)cc1 [Example 125, 4-{4-[3-(4-Fluoro-phenyl)-5-methyl-isoxazol-4-yl]-imidazol-1-yl}-benzoic acid methyl ester]
29		Cc1cccc(-n2cnc(-c3c(-c4ccc(F)cc4)noc3C)c2)c1 [Example 118, 3-(4-Fluoro-phenyl)-5-methyl-4-(1-m-tolyl-1H-imidazol-4-yl)-isoxazole]
	13.2	C#CCNC(=O)c1ccc(-n2cnc(-c3c(-c4ccccc4)noc3C)c2)cc1 [Example 72, 4-[4-(5-Methyl-3-phenyl-isoxazol-4-yl)-imidazol-1-yl]-N-prop-2-ynyl-benzamide]
11.9		Cc1onc(-c2ccccc2)c1-c1cn(-c2ccc([N+](=O)[O-])cc2)cn1 [Example 13, 5-Methyl-4-[1-(4-nitro-phenyl)-1H-imidazol-4-yl]-3-phenyl-isoxazole]
28.7		CCOc1ccc(-n2cnc(-c3c(-c4ccccc4)noc3C)c2)cc1 [Example 19, 4-[1-(4-Ethoxy-phenyl)-1H-imidazol-4-yl]-5-methyl-3-phenyl-isoxazole]
9.9		CCc1onc(-c2ccccc2)c1-c1cn(-c2ccc(C(C)=O)cc2)cn1 [Example 30, 1-{4-[4-(5-Ethyl-3-phenyl-isoxazol-4-yl)-imidazol-1-yl]-phenyl}-ethanone]
31		Cc1onc(-c2ccc(F)cc2)c1-c1cn(-c2ccc(F)cc2)cn1 [Example 114, 3-(4-Fluoro-phenyl)-4-[1-(4-fluoro-phenyl)-1H-imidazol-4-yl]-5-methyl-isoxazole]
32.1		Cc1onc(-c2cccc(F)c2)c1-c1cn(-c2ccc(C(=O)NCc3ccccn3)cc2)cn1 [Example 106, 4-{4-[3-(3-Fluoro-phenyl)-5-methyl-isoxazol-4-yl]-imidazol-1-yl}-N-pyridin-2-ylmethyl-benzamide]
21		COc1ccc(-n2cnc(-c3c(-c4ccccc4)noc3C)c2)cc1 [Example 18, 4-[1-(4-Methoxy-phenyl)-1H-imidazol-4-yl]-5-methyl-3-phenyl-isoxazole]
